This is an account of results in patent US9604936B2, “Besylate salt of a BTK inhibitor” (Celgene Avilomics Research, Inc., priority 2010, dated 2017).

One may read the solubility as the dissolved amount per volume that the medium holds.

One series deals with BTK (Homo sapiens, UniProt Q06187). The note with it: enzymatic and cellular assays; cited from earlier work.
Series [1] has as its system B-cell proliferation. The note with it: in vitro; cited from earlier work.
Series [2] deals with B-cell proliferation. The conditions noted are these: in vivo; cited from earlier work.
A short description of series [3]: Solubility of Compound 2 by manual dilution combined with visual observation. The format is physicochemical. The conditions noted are these: thermodynamic from solid. As for the experimental part: Solubility of Compound 2, at room temperature, was measured in seventeen solvents and two solvent mixtures by manual dilution combined with visual observation.

Read-outs that look alike come from different tables or passages of the source.

Chain of BTK (Q06187 whole entry, species assumed): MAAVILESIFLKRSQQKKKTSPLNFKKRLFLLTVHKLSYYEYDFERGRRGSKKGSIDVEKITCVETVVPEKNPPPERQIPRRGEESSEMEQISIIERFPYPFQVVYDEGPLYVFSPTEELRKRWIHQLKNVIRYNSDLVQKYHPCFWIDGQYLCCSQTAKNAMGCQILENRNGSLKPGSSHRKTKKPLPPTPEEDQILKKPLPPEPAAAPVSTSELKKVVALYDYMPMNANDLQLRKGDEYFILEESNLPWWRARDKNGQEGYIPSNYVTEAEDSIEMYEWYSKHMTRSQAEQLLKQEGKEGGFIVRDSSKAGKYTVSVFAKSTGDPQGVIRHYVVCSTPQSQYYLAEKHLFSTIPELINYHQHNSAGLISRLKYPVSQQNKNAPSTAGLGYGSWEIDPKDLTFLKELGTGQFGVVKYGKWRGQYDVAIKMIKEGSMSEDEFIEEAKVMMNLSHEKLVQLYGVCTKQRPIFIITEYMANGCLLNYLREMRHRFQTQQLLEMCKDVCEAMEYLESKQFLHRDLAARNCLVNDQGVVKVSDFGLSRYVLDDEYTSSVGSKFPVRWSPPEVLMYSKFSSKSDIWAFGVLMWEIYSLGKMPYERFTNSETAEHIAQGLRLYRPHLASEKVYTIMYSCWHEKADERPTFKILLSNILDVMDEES

`C=CC(=O)Nc1cccc(Nc2nc(Nc3ccc(OCCOC)cc3)ncc2F)c1` [Compound 1, N-(3-(5-fluoro-2-(4-(2-methoxyethoxy)phenylamino)pyrimidin-4-ylamino)phenyl)acrylamide]: the “inhibition of BTK” value at BTK is “covalent, irreversible inhibition of BTK”. The “inhibition of B-cell proliferation” value with B-cell proliferation [1] and in the series with B-cell proliferation [2] was “inhibit B-cell proliferation” in each case.
Turning to `C=CC(=O)Nc1cccc(Nc2nc(Nc3ccc(OCCOC)cc3)ncc2F)c1.O=S(=O)(O)c1ccccc1` [Compound 2], the solubility was 71000 to 106000 µg/mL in series [3] (aqueous with cosolvent or surfactant or cyclodextrin, 1:1 DMF:H2O, room temperature); 16000 to 18000 µg/mL in series [3] (aqueous with cosolvent or surfactant or cyclodextrin, 3:7 DMF:H2O, room temperature); under 1000 µg/mL in series [3] (organic solvent or mixture, 1,4-dioxane, room temperature); about 2500 µg/mL in series [3] (organic solvent or mixture, Acetone, room temperature); under 1000 µg/mL in series [3] (organic solvent or mixture, Anisole, room temperature); 97000 to 194000 µg/mL in series [3] (organic solvent or mixture, Benzyl alcohol, room temperature). For the same compound, the solubility is under 1000 µg/mL in series [3] (organic solvent or mixture, CH2Cl2, room temperature); about 2000 µg/mL in series [3] (organic solvent or mixture, CH3CN, room temperature); over 184000 µg/mL in series [3] (organic solvent or mixture, DMF, room temperature); about 2000 µg/mL in series [3] (organic solvent or mixture, Ethanol, room temperature); under 1000 µg/mL in series [3] (organic solvent or mixture, Ethyl Acetate, room temperature); under 1000 µg/mL in series [3] (organic solvent or mixture, Isopropanol, room temperature). Besides, the solubility is 26000 to 29000 µg/mL in series [3] (organic solvent or mixture, Methanol, room temperature); over 234000 µg/mL in series [3] (organic solvent or mixture, Pyridine, room temperature); under 1000 µg/mL in series [3] (organic solvent or mixture, TBME, room temperature); about 2000 µg/mL in series [3] (organic solvent or mixture, THF, room temperature); under 1000 µg/mL in series [3] (organic solvent or mixture, Toluene, room temperature); under 1000 µg/mL in series [3] (Water, room temperature).
